Tests used:
HepG2 cells [1] = experiment: LC-MS/MS targeted intracellular metabolomics; assay type: cell-based, human; settings: Suppl Fig 9; C3 (EC15 ATP), 48 h; Bezafibrate lines = Plates 1-6 in order
Method: Metabolite profiling of cells was performed directly in the same 96-well plate according to a standardized protocol described below. In order to prevent any interaction with the cell material, the automatic sampler was adjusted to pick up the sample from the supernatant at a specified depth avoiding the contact with the bottom of the plate.
After the initial quenching step (50 μL isopropanol 80%), additional 70 μL of isopropanol 80%, containing internal standards (methionine-D3, tryptophan-D5, arginine-13C6-15N4, Boc-Ala-Gly-Gly-Gly-OH, coenzyme Q1, coenzyme Q2, coenzyme Q4) were added to each well. The internal standards were used for quality control by visual inspection (signal intensity, peak shape, retention time); they were not used for normalization. Afterwards, plates were shaken for 5 min, 750 rpm at 20 °C, and placed for 30 s in the ultrasonic device. Then, the plates were centrifugated for 10 min, at 5485 g, 15 °C. Further, 2.5 μL of the extract were injected each for reversed-phase and hydrophilic interaction liquid chromatography followed by MS/MS detection (AB Sciex QTrap 6500+) using the positive and negative ionization mode. For reverse-phase high-performance liquid chromatography (RP-HPLC, Ascentis Express C18, 5 cm × 2.1 mm, 2.7 μm Supelco), gradient elution was performed with mobile phase A, water/methanol/0.1 M ammonium formate (1:1:0.02, w/w), and B, methyl-tert-butylether/2-propanol/methanol/0.1 M ammonium formate/formic acid (4:2:1:0.07:0.035, w/w) 5.9 min linear gradient: 0 min 100% A, 0.5 min 75% A, 5.9 min 10% A; followed by 0% A until 6.7 min; re-equilibration at 100% A until 7.7 min; flow rate 600 μL/min; column temperature 40 °C HILIC (ZIC-HILIC, 2.1 × 100 mm, 3.5 μm, Supelco) gradient elution was performed with mobile phase C, acetonitrile/water (99:1, v/v) with 0.2% (v) acetic acid, and D, 7 mM ammonium acetate with 0.2% (v) acetic acid (5.0 min linear gradient: 0 min 100% C, 5 min 10% C; followed by a linear gradient back to 100%C until 6.5 min; re-equilibration at 100% C until 7.5 min; flow rate 600 μL/min; column temperature 40 °C.). Two LC-MS systems with identical configuration were used for the analysis. Normalization to lyophilized reference samples (see below) was used to compensate for variation from between analytical batches. The efficiency of this normalization procedure was checked by principal component analysis (PCA), confirming that Pool samples from different analytical batches clustered together.
Reference samples derived from lyophilized untreated HepG2 cells (technical control samples) were measured in parallel throughout the entire analytical process. Data were normalized against the median of these lyophilized HepG2 cells reference samples, to give normalized ratios (performed for each sample per metabolite). This compensated for inter- and intra-instrumental variation. To correct for small differences in cell numbers within and between different treatment groups, data were also normalized to the within sample median, as described in detail by (Ramirez et al. [2018]). For intracellular metabolomic analysis, the median of each sample was calculated across all the 221 measured metabolites.
To generate metabolic profiles for the different treatments, heteroscedastic t test (Welch test) was applied to log-transformed normalized metabolite data to compare treated groups with their respective controls.
Principal component analysis (PCA) and hierarchical clustering (HCA) analyses were performed using R software environment (https://www.r-project.org/). PCA was conducted using the ropls package (Thévenot et al. [2015]) with log10-transformed input data and standard scaling. HCA was performed using the pvclust package (Suzuki et al. [2019]), (https://CRAN.R-project.org/package=pvclust). Input: log10(Ratio), clustering method: Ward D2, distance method: Manhattan, bootstrapping: 10000 times.

HepG2 cells [2] = experiment: Cytotoxicity (CellTox Green) in parallel with metabolomics experiments; settings: intermediate concentration (C3; C2 for aroclor), 48 h
Method: Commercially available cytotoxicity (CellTox™ Green) and ATP content based (CellTiter-Glo®) assays (Promega GmbH, Walldorf, Germany) were multiplexed in a single 96-well plate following the manufacturer’s instructions. For positive controls, lysis solution 25X was added in wells containing vehicle control treated cells (0.5% DMSO). Then, 10X CellTox Green reagent was added in all wells, plates were shaken for 1 min, and incubated in the dark for 15 min at room temperature. […] Afterwards, wells were washed with PBS, 100 μL of Dulbecco’s MEM media were added to each well and subsequently 100 μL of 1X CellTiter-Glo were added. Plates were shaken for 2 min and incubated in the dark for 8 min at room temperature. Luminescence was measured in the GloMax®-Multi Detection System (Promega) and was normalized to the values of the vehicle control. Cytotoxicity and ATP cell viability analysis were carried out for range finder pre-tests and in parallel with metabolomics experiments in plates handled and treated exactly as the ones used for metabolite profiling.

Q: O=C(O)c1cc(Oc2ccc(C(F)(F)F)cc2Cl)ccc1[N+](=O)[O-] [Acifluorfen] was tested. Which “2'-Deoxycytidine level vs controls” value (HepG2 cells [1]) did it give?
A: 0.56

Q: What about the “5-Hydroxytryptophan level vs controls” value (HepG2 cells [1]) of the same compound?
A: 0.74

Q: And the “Carnitine level vs controls” value (HepG2 cells [1])?
A: 0.98

Q: What about the “Ceramide (d18:1.C20:0) level vs controls” value (HepG2 cells [1]) of the same compound?
A: 0.74

Q: What about the “Ceramide (d18:1.C24:1) level vs controls” value (HepG2 cells [1]) of the same compound?
A: 0.72

Q: What about the “Ceramide (d18:1.C24:2) level vs controls” value (HepG2 cells [1]) of the same compound?
A: 0.68

Q: And the “Ceramide (d18:2.C24:1) level vs controls” value (HepG2 cells [1])?
A: 0.64

Q: And the “Choline plasmalogen (C36:4) level vs controls” value (HepG2 cells [1])?
A: 0.75

Q: And the “Choline plasmalogen (C36:5) level vs controls” value (HepG2 cells [1])?
A: 0.70

Q: What about the “Creatine level vs controls” value (HepG2 cells [1]) of the same compound?
A: 0.87

Q: What about the “Glycerol-3-phosphate level vs controls” value (HepG2 cells [1]) of the same compound?
A: 0.90

Q: What about the “Hexanoylcarnitine level vs controls” value (HepG2 cells [1]) of the same compound?
A: 0.70

Q: What about the “Ketoleucine level vs controls” value (HepG2 cells [1]) of the same compound?
A: 0.80

Q: What about the “Lysophosphatidylcholine (C14:0) level vs controls” value (HepG2 cells [1]) of the same compound?
A: 1.75

Q: What about the “Lysophosphatidylcholine (C16:0) level vs controls” value (HepG2 cells [1]) of the same compound?
A: 1.17

Q: And the “Lysophosphatidylcholine (C16:1) level vs controls” value (HepG2 cells [1])?
A: 1.22

Q: What about the “Lysophosphatidylcholine (C20:4) level vs controls” value (HepG2 cells [1]) of the same compound?
A: 0.94

Q: What about the “Lysophosphatidylcholine (C24:0) level vs controls” value (HepG2 cells [1]) of the same compound?
A: 1.25

Q: And the “Lysophosphatidylcholine (C24:1) level vs controls” value (HepG2 cells [1])?
A: 1.00

Q: What about the “Lysophosphatidylethanolamine (C16:0) level vs controls” value (HepG2 cells [1]) of the same compound?
A: 1.67

Q: What about the “Lysophosphatidylethanolamine (C18:0) level vs controls” value (HepG2 cells [1]) of the same compound?
A: 1.69

Q: And the “Lysophosphatidylethanolamine (C18:1) level vs controls” value (HepG2 cells [1])?
A: 1.09

Q: And the “N-Acetylaspartate level vs controls” value (HepG2 cells [1])?
A: 1.50

Q: What about the “Pantothenic acid level vs controls” value (HepG2 cells [1]) of the same compound?
A: 0.68

Q: What about the “Phosphatidylcholine (C32:0) level vs controls” value (HepG2 cells [1]) of the same compound?
A: 0.82

Q: And the “Phosphatidylcholine (C34:1) level vs controls” value (HepG2 cells [1])?
A: 0.81

Q: And the “Phosphatidylcholine (C34:3) level vs controls” value (HepG2 cells [1])?
A: 1.23

Q: And the “Phosphatidylcholine (C36:1) level vs controls” value (HepG2 cells [1])?
A: 0.76

Q: And the “Phosphatidylcholine (C36:2) level vs controls” value (HepG2 cells [1])?
A: 0.78

Q: And the “Phosphatidylcholine (C36:3) level vs controls” value (HepG2 cells [1])?
A: 0.82

Q: And the “Phosphatidylcholine (C36:4) level vs controls” value (HepG2 cells [1])?
A: 0.66

Q: What about the “Phosphatidylcholine (C36:5) level vs controls” value (HepG2 cells [1]) of the same compound?
A: 0.71

Q: What about the “Phosphatidylethanolamine (C36:3) level vs controls” value (HepG2 cells [1]) of the same compound?
A: 0.86

Q: What about the “Phosphatidylethanolamine (C38:3) level vs controls” value (HepG2 cells [1]) of the same compound?
A: 1.05

Q: What about the “Phosphatidylethanolamine (C38:5) level vs controls” value (HepG2 cells [1]) of the same compound?
A: 0.82

Q: And the “Phosphatidylethanolamine (C38:6) level vs controls” value (HepG2 cells [1])?
A: 0.91

Q: What about the “Phosphatidylethanolamine (C40:7) level vs controls” value (HepG2 cells [1]) of the same compound?
A: 0.68

Q: And the “Phosphocholine level vs controls” value (HepG2 cells [1])?
A: 0.79

Q: And the “Propionylcarnitine level vs controls” value (HepG2 cells [1])?
A: 0.79

Q: What about the “S-Adenosylhomocysteine level vs controls” value (HepG2 cells [1]) of the same compound?
A: 0.84

Q: What about the “Sphingomyelin (d32:2) level vs controls” value (HepG2 cells [1]) of the same compound?
A: 0.65

Q: What about the “Sphingomyelin (d33:1) level vs controls” value (HepG2 cells [1]) of the same compound?
A: 0.93

Q: What about the “Sphingomyelin (d34:0) level vs controls” value (HepG2 cells [1]) of the same compound?
A: 1.12

Q: And the “Sphingomyelin (d35:1) level vs controls” value (HepG2 cells [1])?
A: 0.85

Q: And the “Sphingomyelin (d36:1) level vs controls” value (HepG2 cells [1])?
A: 0.84

Q: And the “Sphingomyelin (d36:2) level vs controls” value (HepG2 cells [1])?
A: 0.76

Q: And the “Sphingomyelin (d37:1) level vs controls” value (HepG2 cells [1])?
A: 0.89

Q: And the “Sphingomyelin (d38:1) level vs controls” value (HepG2 cells [1])?
A: 0.89

Q: And the “Sphingomyelin (d38:2) level vs controls” value (HepG2 cells [1])?
A: 0.83

Q: And the “Sphingomyelin (d39:1) level vs controls” value (HepG2 cells [1])?
A: 1.01

Q: And the “Sphingomyelin (d40:2) level vs controls” value (HepG2 cells [1])?
A: 0.87

Q: And the “Sphingomyelin (d41:2) level vs controls” value (HepG2 cells [1])?
A: 0.90

Q: What about the “Sphingomyelin (d42:2) level vs controls” value (HepG2 cells [1]) of the same compound?
A: 0.85

Q: What about the “Taurine level vs controls” value (HepG2 cells [1]) of the same compound?
A: 0.61

Q: And the “Triacylglycerol (C34:1.C18:3) level vs controls” value (HepG2 cells [1])?
A: 1.73

Q: And the “Triacylglycerol (C34:2.C18:0) level vs controls” value (HepG2 cells [1])?
A: 2.66

Q: What about the “Triacylglycerol (C34:2.C18:1) level vs controls” value (HepG2 cells [1]) of the same compound?
A: 2.04

Q: What about the “Triacylglycerol (C36:4.C16:0) level vs controls” value (HepG2 cells [1]) of the same compound?
A: 1.86

Q: And the “Triacylglycerol (C36:4.C18:0) level vs controls” value (HepG2 cells [1])?
A: 2.14

Q: What about the “cytotoxicity (CellTox Green)” value (HepG2 cells [2]) of the same compound?
A: low cytotoxicity
